From patent US10570184B2, “GLP-1/glucagon receptor co-agonists for medical use” (Novo Nordisk A/S, priority 2014, dated 2020)
Starred links: 1 amine or outer side, 2 acyl side, 3 side chain; linkers in the order of their positions; H or OH if unused. Non-standard residues stand in square brackets, D forms with d. Residues, ends and D or L forms follow the SMILES beside them. Groups on a side chain read outwards from the residue. *: point of attachment. C18 diacid = O=C(O)CCCCCCCCCCCCCCCCC(=O)*; γGlu = O=C(O)[C@H](CCC(=O)[*:2])N[*:1]; Ac4c = NC1(C(=O)O)CCC1; AEEA = NCCOCCOCC(=O)O; Aib = CC(C)(N)C(=O)O

target: T1, human GLP-1 receptor (Homo sapiens, UniProt P43220); assay: Assay (II)(a) GLP-1 receptor binding, 125I-GLP-1 displacement SPA on BHK membranes; settings: without presence of serum albumin; read-out: GLP-1R IC50 (nM) [Assay (II)(a)]
T1 construct: expressed in transfected cells; host or cells: membranes of BHK cells (parent BHKTS13), clone FCW467-12A
T1 sequence (P43220 24-463): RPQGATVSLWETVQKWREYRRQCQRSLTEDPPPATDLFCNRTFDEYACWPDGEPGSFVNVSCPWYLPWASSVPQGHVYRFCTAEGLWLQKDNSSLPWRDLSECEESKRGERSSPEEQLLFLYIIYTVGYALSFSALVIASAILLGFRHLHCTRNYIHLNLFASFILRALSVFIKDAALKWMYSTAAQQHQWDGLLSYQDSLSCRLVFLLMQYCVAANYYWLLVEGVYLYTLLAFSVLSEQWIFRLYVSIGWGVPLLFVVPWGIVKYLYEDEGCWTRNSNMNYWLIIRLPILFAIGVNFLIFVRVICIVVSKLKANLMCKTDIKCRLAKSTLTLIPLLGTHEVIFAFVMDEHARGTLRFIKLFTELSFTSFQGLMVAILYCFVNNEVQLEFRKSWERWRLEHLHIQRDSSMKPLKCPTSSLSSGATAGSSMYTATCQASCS
Summary of the method: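 Membranes from BHK cells (clone FCW467-12A) stably expressing human GLP-1R were incubated with serially diluted compounds (8×10EE-13 to 8×10EE-7 M before addition) and [125I]-GLP-1-(7-36)NH2 with WGA SPA beads, 2 h at 30° C, pH 7.4. IC50 taken from displacement by non-linear regression. Run at ≤0.001% or 2.0% final serum albumin.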

Structure (SMILES) | IC50 [nM]
CC[C@H](C)[C@H](NC(=O)[C@H](CC(C)C)NC(=O)[C@H](Cc1c[nH]c2ccccc12)NC(=O)[C@H](C)NC(=O)[C@@H](NC(=O)[C@H](Cc1ccccc1)NC(=O)[C@H](CC(=O)O)NC(=O)[C@H](CCCNC(=N)N)NC(=O)[C@H](C)NC(=O)[C@H](CCCNC(=N)N)NC(=O)[C@H](CCCNC(=N)N)NC(=O)[C@H](CC(C)C)NC(=O)[C@H](CC(=O)O)NC(=O)[C@H](CC(C)C)NC(=O)[C@H](Cc1ccc(O)cc1)NC(=O)[C@H](CCCCN)NC(=O)[C@H](CO)NC(=O)[C@H](CC(C)C)NC(=O)[C@H](CC(=O)O)NC(=O)[C@H](CO)NC(=O)[C@@H](NC(=O)[C@H](Cc1ccccc1)NC(=O)[C@@H](NC(=O)CNC(=O)[C@H](CCC(N)=O)NC(=O)C(C)(C)NC(=O)[C@@H](N)Cc1c[nH]cn1)[C@@H](C)O)[C@@H](C)O)C(C)C)C(=O)N[C@@H](CC(N)=O)C(=O)N[C@@H](CCCCNC(=O)CC[C@H](NC(=O)CC[C@H](NC(=O)COCCOCCNC(=O)COCCOCCNC(=O)CC[C@H](NC(=O)CCCCCCCCCCCCCCCCC(=O)O)C(=O)O)C(=O)O)C(=O)O)C(N)=O [Chem. 24, N^ε29-[(4S)-4-carboxy-4-[[(4S)-4-carboxy-4-[[2-[2-[2-[[2-[2-[2-[[(4S)-4-carboxy-4-(17-carboxyheptadecanoylamino)butanoyl]amino]ethoxy]ethoxy]acetyl]amino]ethoxy]ethoxy]acetyl]amino]butanoyl]amino]butanoyl]-[Aib2,Leu10,Leu16,Arg20,Ala24,Ile27,Lys29]-Glucagon amide] (H-H[Aib]QGTFTSDLSKYLDLRRARDFVAWLINK([γGlu-γGlu-AEEA-AEEA-γGlu-C18 diacid])-NH2; N-terminus assumed) | 0.4
CC[C@H](C)[C@H](NC(=O)[C@H](CC(C)C)NC(=O)[C@H](Cc1c[nH]c2ccccc12)NC(=O)[C@H](CCC(N)=O)NC(=O)[C@@H](NC(=O)[C@H](Cc1ccccc1)NC(=O)[C@H](CCC(=O)O)NC(=O)[C@H](CCCNC(=N)N)NC(=O)[C@H](C)NC(=O)[C@H](CCCNC(=N)N)NC(=O)[C@H](CCCNC(=N)N)NC(=O)[C@H](CO)NC(=O)[C@H](CCC(=O)O)NC(=O)[C@H](CC(C)C)NC(=O)[C@H](Cc1ccc(O)cc1)NC(=O)[C@H](CCCCN)NC(=O)[C@H](CO)NC(=O)[C@H](CC(C)C)NC(=O)[C@H](CC(=O)O)NC(=O)[C@H](CO)NC(=O)[C@@H](NC(=O)[C@H](Cc1ccccc1)NC(=O)[C@@H](NC(=O)CNC(=O)[C@H](CCC(N)=O)NC(=O)C(C)(C)NC(=O)[C@@H](N)Cc1c[nH]cn1)[C@@H](C)O)[C@@H](C)O)C(C)C)C(=O)N[C@@H](CCCCNC(=O)CC[C@H](NC(=O)CC[C@H](NC(=O)COCCOCCNC(=O)COCCOCCNC(=O)CC[C@H](NC(=O)CC[C@H](NC(=O)CCCCCCCCCCCCCCCCC(=O)O)C(=O)O)C(=O)O)C(=O)O)C(=O)O)C(=O)N[C@H](C(N)=O)[C@@H](C)O [Chem. 25, N^ε28-[(4S)-4-carboxy-4-[[(4S)-4-carboxy-4-[[2-[2-[2-[[2-[2-[2-[[(4S)-4-carboxy-4-[[(4S)-4-carboxy-4-(17-carboxyheptadecanoylamino)butanoyl]amino]butanoyl]amino]ethoxy]ethoxy]acetyl]amino]ethoxy]ethoxy]acetyl]amino]butanoyl]amino]butanoyl]-[Aib2,Leu10,Glu15,Arg20,Glu21,Ile27,Lys28]-Glucagon amide] (H-H[Aib]QGTFTSDLSKYLESRRAREFVQWLIK([γGlu-γGlu-AEEA-AEEA-γGlu-γGlu-C18 diacid])T-NH2; N-terminus assumed) | 0.1
CC[C@H](C)[C@H](NC(=O)[C@H](CC(=O)O)NC(=O)[C@H](CO)NC(=O)[C@@H](NC(=O)[C@H](Cc1ccccc1)NC(=O)[C@@H](NC(=O)CNC(=O)[C@H](CCC(N)=O)NC(=O)C1(NC(=O)[C@@H](N)Cc2c[nH]cn2)CCC1)[C@@H](C)O)[C@@H](C)O)C(=O)N[C@@H](CO)C(=O)N[C@@H](CCCCN)C(=O)N[C@@H](Cc1ccc(O)cc1)C(=O)N[C@@H](CC(C)C)C(=O)N[C@@H](CCC(=O)O)C(=O)N[C@@H](CO)C(=O)N[C@@H](CCCNC(=N)N)C(=O)N[C@@H](CCCNC(=N)N)C(=O)N[C@@H](C)C(=O)N[C@@H](CCCNC(=N)N)C(=O)N[C@@H](CCC(=O)O)C(=O)N[C@@H](Cc1ccccc1)C(=O)N[C@H](C(=O)N[C@@H](CCC(N)=O)C(=O)N[C@@H](Cc1c[nH]c2ccccc12)C(=O)N[C@@H](CC(C)C)C(=O)N[C@H](C(=O)N[C@@H](CCCCNC(=O)CC[C@H](NC(=O)CC[C@H](NC(=O)COCCOCCNC(=O)COCCOCCNC(=O)CC[C@H](NC(=O)CC[C@H](NC(=O)CCCCCCCCCCCCCCCCC(=O)O)C(=O)O)C(=O)O)C(=O)O)C(=O)O)C(=O)N[C@H](C(N)=O)[C@@H](C)O)[C@@H](C)CC)C(C)C [Chem. 26, N^ε28-[(4S)-4-carboxy-4-[[(4S)-4-carboxy-4-[[2-[2-[2-[[2-[2-[2-[[(4S)-4-carboxy-4-[[(4S)-4-carboxy-4-(17-carboxyheptadecanoylamino)butanoyl]amino]butanoyl]amino]ethoxy]ethoxy]acetyl]amino]ethoxy]ethoxy]acetyl]amino]butanoyl]amino]butanoyl]-[Acb2,Ile10,Glu15,Arg20,Glu21,Ile27,Lys28]-Glucagon amide] (H-H[Ac4c]QGTFTSDISKYLESRRAREFVQWLIK([γGlu-γGlu-AEEA-AEEA-γGlu-γGlu-C18 diacid])T-NH2; N-terminus assumed) | 0.4

Next, values leading:

IC50 [nM] | Structure (SMILES)
0.2 | CC[C@H](C)[C@H](NC(=O)[C@H](CC(C)C)NC(=O)[C@H](Cc1c[nH]c2ccccc12)NC(=O)[C@H](CCC(N)=O)NC(=O)[C@@H](NC(=O)[C@H](Cc1ccccc1)NC(=O)[C@H](CC(=O)O)NC(=O)[C@H](CCCNC(=N)N)NC(=O)[C@H](C)NC(=O)[C@H](CCCNC(=N)N)NC(=O)[C@H](CCCNC(=N)N)NC(=O)[C@H](C)NC(=O)[C@H](CC(=O)O)NC(=O)[C@H](CC(C)C)NC(=O)[C@H](Cc1ccc(O)cc1)NC(=O)[C@H](CCCCN)NC(=O)[C@H](CO)NC(=O)[C@H](CC(C)C)NC(=O)[C@H](CC(=O)O)NC(=O)[C@H](CO)NC(=O)[C@@H](NC(=O)[C@H](Cc1ccccc1)NC(=O)[C@@H](NC(=O)CNC(=O)[C@H](CCC(N)=O)NC(=O)C(C)(C)NC(=O)[C@@H](N)Cc1c[nH]cn1)[C@@H](C)O)[C@@H](C)O)C(C)C)C(=O)N[C@@H](CO)C(=O)N[C@@H](CCCCNC(=O)CC[C@H](NC(=O)CC[C@H](NC(=O)COCCOCCNC(=O)COCCOCCNC(=O)CC[C@H](NC(=O)CCCCCCCCCCCCCCCCC(=O)O)C(=O)O)C(=O)O)C(=O)O)C(N)=O [Chem. 27, N^ε29-[(4S)-4-carboxy-4-[[(4S)-4-carboxy-4-[[2-[2-[2-[[2-[2-[2-[[(4S)-4-carboxy-4-(17-carboxyheptadecanoylamino)butanoyl]amino]ethoxy]ethoxy]acetyl]amino]ethoxy]ethoxy]acetyl]amino]butanoyl]amino]butanoyl]-[Aib2,Leu10,Ala16,Arg20,Ile27,Ser28,Lys29]-Glucagon amide] (H-H[Aib]QGTFTSDLSKYLDARRARDFVQWLISK([γGlu-γGlu-AEEA-AEEA-γGlu-C18 diacid])-NH2; N-terminus assumed)
0.2 | CC[C@H](C)[C@H](NC(=O)[C@H](CC(C)C)NC(=O)[C@H](Cc1c[nH]c2ccccc12)NC(=O)[C@H](CCC(N)=O)NC(=O)[C@@H](NC(=O)[C@H](Cc1ccccc1)NC(=O)[C@H](CCC(=O)O)NC(=O)[C@H](CCCNC(=N)N)NC(=O)[C@H](C)NC(=O)[C@H](CCCNC(=N)N)NC(=O)[C@H](CCCNC(=N)N)NC(=O)[C@H](C)NC(=O)[C@H](CC(=O)O)NC(=O)[C@H](CC(C)C)NC(=O)[C@H](Cc1ccc(O)cc1)NC(=O)[C@H](CCCCN)NC(=O)[C@H](CO)NC(=O)[C@H](CC(C)C)NC(=O)[C@H](CC(=O)O)NC(=O)[C@H](CO)NC(=O)[C@@H](NC(=O)[C@H](Cc1ccccc1)NC(=O)[C@@H](NC(=O)CNC(=O)[C@H](CCC(N)=O)NC(=O)C(C)(C)NC(=O)[C@@H](N)Cc1c[nH]cn1)[C@@H](C)O)[C@@H](C)O)C(C)C)C(=O)N[C@@H](CO)C(=O)N[C@@H](CCCCNC(=O)CC[C@H](NC(=O)CC[C@H](NC(=O)COCCOCCNC(=O)COCCOCCNC(=O)CC[C@H](NC(=O)CCCCCCCCCCCCCCCCC(=O)O)C(=O)O)C(=O)O)C(=O)O)C(N)=O [Chem. 28, N^ε29-[(4S)-4-carboxy-4-[[(4S)-4-carboxy-4-[[2-[2-[2-[[2-[2-[2-[[(4S)-4-carboxy-4-(17-carboxyheptadecanoylamino)butanoyl]amino]ethoxy]ethoxy]acetyl]amino]ethoxy]ethoxy]acetyl]amino]butanoyl]amino]butanoyl]-[Aib2,Leu10,Ala16,Arg20,Glu21,Ile27,Ser28,Lys29]-Glucagon amide] (H-H[Aib]QGTFTSDLSKYLDARRAREFVQWLISK([γGlu-γGlu-AEEA-AEEA-γGlu-C18 diacid])-NH2; N-terminus assumed)
